Measured values: PubChem BioAssay (NCI)
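Exposure lasted 48 hours, with cells grown in 96-well plates and compounds tested at five concentrations. GI50: concentration for 50% inhibition of growth. At the TGI there is no net growth.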

Legend:
Assay in all cases: NCI anticancer screen, dose series, 48 h
ACHN renal = test system: ACHN renal
EKVX NSCLC = test system: EKVX NSCLC
MALME-3M melanoma = test system: MALME-3M melanoma
NCI-H226 lung = test system: NCI-H226 lung
NCI-H522 lung = test system: NCI-H522 lung
RXF 393 renal = test system: RXF 393 renal
SNB-19 CNS = test system: SNB-19 CNS
U251 CNS = test system: U251 CNS
UACC-62 melanoma = test system: UACC-62 melanoma
UO-31 renal = test system: UO-31 renal

Structure (SMILES) | TGI (ACHN renal) | TGI (EKVX NSCLC) | TGI (MALME-3M melanoma) | TGI (NCI-H226 lung) | TGI (NCI-H522 lung) | TGI (RXF 393 renal) | TGI (SNB-19 CNS) | TGI (U251 CNS) | TGI (UACC-62 melanoma) | TGI (UO-31 renal) | GI50 (ACHN renal) | GI50 (EKVX NSCLC) | GI50 (MALME-3M melanoma) | GI50 (NCI-H226 lung) | GI50 (NCI-H522 lung) | GI50 (RXF 393 renal) | GI50 (SNB-19 CNS) | GI50 (U251 CNS) | GI50 (UACC-62 melanoma) | GI50 (UO-31 renal)
Cc1ccccc1NC(=O)C(=O)C(c1cnc2ccc([N+](=O)[O-])cc2n1)[N+](=O)[O-] (stereo not drawn) | > 100 µM | > 100 µM | > 100 µM | > 100 µM | > 100 µM | > 100 µM | > 100 µM | > 100 µM | > 100 µM | > 100 µM | – | – | – | – | – | – | – | – | – | –
COc1ccc(/C(C)=C(\c2ccc(Cl)cc2)c2ccc(OCCN3CCCC3)cc2)cc1F | 7.44 µM | 7.27 µM | 4.63 µM | 8.88 µM | 8.94 µM | 6.49 µM | 7.41 µM | 7.17 µM | 6.32 µM | 6.26 µM | 4.06 µM | 3.73 µM | 1.23 µM | 4.47 µM | 4.35 µM | 3.19 µM | 3.87 µM | 3.15 µM | 3.1 µM | 2.95 µM
CN1CCC[C@@H]1CCO[C@](C)(c1ccccc1)c1ccc(Cl)cc1 | 19 µM | 25.2 µM | 4.85 µM | 25.3 µM | 17.1 µM | 13.9 µM | 22.2 µM | 15.8 µM | 3.99 µM | 16.3 µM | 6.31 µM | 10.9 µM | 1.79 µM | 10.5 µM | 4.63 µM | 3.48 µM | 8.42 µM | 3.83 µM | 1.81 µM | 2.83 µM
C#CCOCn1cnc2c(=S)nc[nH]c21 | > 100 µM | > 100 µM | > 100 µM | > 100 µM | > 100 µM | > 100 µM | > 100 µM | > 100 µM | > 100 µM | > 100 µM | – | – | – | – | – | – | – | – | – | –
C/C(CC(=O)NNc1ccc([N+](=O)[O-])cc1)=N\Nc1ccc([N+](=O)[O-])cc1 | > 100 µM | > 100 µM | 66.5 µM | > 100 µM | 7.92 µM | 46.5 µM | > 100 µM | 33.2 µM | 19 µM | > 100 µM | 5.45 µM | 22.4 µM | 10.6 µM | 17.9 µM | 0.776 µM | 17.7 µM | 29.7 µM | 10.5 µM | 1.55 µM | 1.88 µM
O=C(O)C1NCCc2c1[nH]c1ccccc21 (stereo not drawn) | > 100 µM | > 100 µM | > 100 µM | > 100 µM | > 100 µM | > 10 µM | > 100 µM | > 100 µM | > 100 µM | > 100 µM | > 100 µM | – | > 100 µM | – | > 100 µM | – | > 100 µM | > 100 µM | > 100 µM | –
COC(=O)C(=O)C(C(=O)C(=O)Nc1ccc(Cl)cc1C)c1nc2ccc(C(=O)c3ccccc3)cc2[nH]c1=O (stereo not drawn) | > 100 µM | > 100 µM | > 100 µM | > 100 µM | > 100 µM | > 100 µM | > 100 µM | > 100 µM | > 100 µM | > 100 µM | – | – | – | – | – | – | – | – | – | –
O=C(Nc1nccs1)c1cc2c(cc1Cl)Sc1nccn1S2(=O)=O | 32.2 µM | 44.7 µM | 37.2 µM | 35.6 µM | 2.85 µM | 39.7 µM | 37 µM | 31 µM | 27.4 µM | 14.7 µM | 17.7 µM | 20.6 µM | 20 µM | 19.6 µM | 1.23 µM | 18.9 µM | 18.9 µM | 17.2 µM | 14.3 µM | 4.41 µM
COc1ccc2c(c1)CCc1c(-c3noc4c3CCc3cc(OC)ccc3-4)noc1-2 | > 100 µM | > 100 µM | > 100 µM | > 100 µM | > 100 µM | > 100 µM | > 100 µM | > 100 µM | > 100 µM | > 100 µM | – | – | – | – | – | – | – | – | – | –
ClCc1ccc(-c2ccc(Cn3cnc4c(Cl)nc(Cl)nc43)cc2)cc1 | 4.25 µM | 15.5 µM | 23.8 µM | 28.5 µM | 6.79 µM | 3.38 µM | 4.15 µM | 3.64 µM | 6.35 µM | 8.18 µM | 2.05 µM | 3.32 µM | 7.06 µM | 8.85 µM | 2.33 µM | 1.67 µM | 1.95 µM | 1.89 µM | 2.49 µM | 3.32 µM
C=C1C(=O)O[C@H]2[C@H]1CC/C(Cn1cc(Cn3ccc4ccccc43)nn1)=C\CC[C@@]1(C)O[C@@H]21 | 2.43 µM | 4.22 µM | 3.34 µM | 3.06 µM | 2.69 µM | 2.82 µM | 15.7 µM | 12.1 µM | 2.89 µM | 2.53 µM | 1.18 µM | 1.86 µM | 1.59 µM | 1.53 µM | 1.27 µM | 1.41 µM | 3.88 µM | 3.42 µM | 1.44 µM | 1.26 µM
N#CC(=S)Nc1ccc(Cl)c(Cl)c1 | 82.5 µM | 61.1 µM | > 54.7 µM | 60.5 µM | 24.2 µM | 52.4 µM | > 100 µM | > 85.1 µM | 34.1 µM | 51.6 µM | – | – | – | – | 3.73 µM | – | – | – | – | 7.63 µM
COc1ccc(-c2cc(=O)c3c(OC)c(OC)c(OC)c(OC)c3o2)cc1OC | > 100 µM | > 100 µM | > 100 µM | > 100 µM | > 100 µM | > 100 µM | > 100 µM | > 100 µM | 72.4 µM | > 100 µM | – | – | – | – | – | – | – | – | – | –
NC(=O)N/N=C(\C(=O)C(=O)Nc1ccc(Cl)c(C(F)(F)F)c1)c1nc2ccc(C(=O)c3ccccc3)cc2[nH]c1=O | > 100 µM | > 100 µM | > 100 µM | > 100 µM | > 100 µM | > 100 µM | > 100 µM | > 100 µM | > 100 µM | > 100 µM | – | – | – | – | – | – | – | – | – | –
CN=C1Nc2ccc(Cl)cc2C(c2ccccc2)=NN1C | > 100 µM | > 100 µM | > 100 µM | > 100 µM | > 100 µM | 81.1 µM | > 100 µM | > 100 µM | > 100 µM | > 100 µM | – | – | – | – | – | – | – | – | – | –
